Experimental findings from PubChem BioAssay (NCI) are described below.

A word on the TGI: it is the concentration giving total growth inhibition. Broadly, the GI50 is the concentration at which growth is held to half of that of the control.

Test systems include CAKI-1 renal; HCT-15 colon; HS 578T breast; HT29 colon; IGROV1 ovarian; MDA-MB-435; OVCAR-4 ovarian; SK-MEL-5 melanoma; SW-620 colon; COLO 205 colon.
What all share (assay): DTP human tumour cell line panel, 48 h

Structures are written as SMILES. Where “and” joins values, the source holds several entries; their conditions need not be identical. Identical values can stand only once.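 The compound was tested at five concentrations on cells cultured in 96-well plates, with a 48-hour exposure period. The concentration for 50% growth inhibition is given as GI50. At the TGI there is no net growth.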

As for `O=C1C(CN(Cc2ccccc2)Cc2ccccc2)CCCC1CN(Cc1ccccc1)Cc1ccccc1` (stereo not given), the TGI with CAKI-1 renal is 11.5 µM and > 100 µM; in the experiment on HCT-15 colon, 21.3 µM and > 100 µM; with HS 578T breast it was above 100 µM; in the experiment on HT29 colon, 47.1 µM and > 100 µM; with IGROV1 ovarian, above 100 µM; in the experiment with MDA-MB-435, above 100 µM. The TGI with OVCAR-4 ovarian was 36.6 µM and > 100 µM; with SK-MEL-5 melanoma, above 100 µM; in the experiment with SW-620 colon, above 100 µM. Further, the GI50 in the experiment with HCT-15 colon is 14.2 µM and > 100 µM; in the experiment with HS 578T breast, > 100 µM and 28.1 µM; with HT29 colon, 25.7 µM and 59.3 µM; in the experiment on OVCAR-4 ovarian it was 20 µM and > 79.8 µM; with SW-620 colon, above 100 µM.
On to `COC(=O)C1=C(C(=O)Nc2cccnc2)C2OC1(C(Cc1ccccc1)Oc1ccccc1)C1OC21` (stereo not given), for which the GI50 is 1.78 µM in the experiment on CAKI-1 renal; 1.73 µM in the experiment on COLO 205 colon; 18.6 µM in the experiment on HS 578T breast; 2.73 µM in the experiment on HT29 colon; 9.17 µM in the experiment on IGROV1 ovarian; 3.79 µM in the experiment with MDA-MB-435. In addition, the GI50 in the experiment on OVCAR-4 ovarian was 2.05 µM; in the experiment on SK-MEL-5 melanoma it was 15.6 µM; in the experiment on SW-620 colon, 1.69 µM. Besides, the TGI in the experiment on CAKI-1 renal is 4 µM; with COLO 205 colon, 3.29 µM; in the experiment on HS 578T breast, 49.9 µM; in the experiment with HT29 colon it was 6.97 µM; in the experiment on IGROV1 ovarian, 25.8 µM; in the experiment with MDA-MB-435, 13.6 µM. Also, the total growth inhibition concentration (TGI) in the experiment with OVCAR-4 ovarian came to 4.66 µM; in the experiment with SK-MEL-5 melanoma, 31.3 µM; in the experiment with SW-620 colon, 3.58 µM.
For `Cc1cc(N2CCOCC2)nc(N(CCNc2ccnc3cc(Cl)ccc23)Cc2ccco2)n1`, the GI50 in the experiment on COLO 205 colon was 2.34 µM; in the experiment on HCT-15 colon, 3.6 µM; in the experiment with HS 578T breast it was 2.64 µM; in the experiment with HT29 colon it was 1.92 µM; in the experiment on IGROV1 ovarian it was 3.92 µM; in the experiment on MDA-MB-435, 3.27 µM. Besides, the values for the GI50 in the experiment on OVCAR-4 ovarian, in the experiment with SK-MEL-5 melanoma and with SW-620 colon were 2.4 µM, 3.1 µM and 3.39 µM, respectively. Moreover, the TGI with COLO 205 colon was above 100 µM; in the experiment with HCT-15 colon it was 34.9 µM; in the experiment on HS 578T breast, 10.1 µM; with HT29 colon it was 5.53 µM; with IGROV1 ovarian, 23.1 µM; in the experiment with MDA-MB-435 it was 15.2 µM. The TGI with OVCAR-4 ovarian stood at 8.12 µM; in the experiment on SK-MEL-5 melanoma, 12.1 µM; in the experiment with SW-620 colon it was 45.2 µM.
For the molecule `CCCCC(SC(=S)N(CC)CC)C(=O)Nc1nc(CC(=O)OCC)cs1` (stereo not given), the GI50 with CAKI-1 renal is 91.7 µM; in the experiment with HCT-15 colon it was 48.5 µM; in the experiment on HS 578T breast, 47.9 µM; with HT29 colon it was 32.7 µM; with IGROV1 ovarian, 37.4 µM; with MDA-MB-435, 31.4 µM. Also, the GI50 in the experiment with OVCAR-4 ovarian was 30.6 µM; with SK-MEL-5 melanoma, 13.5 µM; in the experiment on SW-620 colon, 38 µM. Also, the TGI in the experiment with CAKI-1 renal, with HCT-15 colon, with HS 578T breast, in the experiment on HT29 colon, with IGROV1 ovarian and in the experiment on MDA-MB-435 was above 100 µM each time. The TGI in the experiment on OVCAR-4 ovarian was above 100 µM; in the experiment with SK-MEL-5 melanoma it was 30.9 µM; in the experiment on SW-620 colon it was above 100 µM.
Consider `Nc1ccn(C2OC(CO[P+](=O)OC3C(CO[P+](=O)OC4C(CO[P+](=O)OC5C(CO[P+](=O)OC6C(CO[P+](=O)OC7C(CO[P+](=O)OC8C(CO[P+](=O)OC9C(CO[P+](=O)OC%10C(CO[P+](=O)OC%11C(CO)OC(n%12ccc(N)nc%12=O)C%11(F)F)OC(n%11ccc(N)nc%11=O)C%10(F)F)OC(n%10ccc(N)nc%10=O)C9(F)F)OC(n9ccc(N)nc9=O)C8(F)F)OC(n8ccc(N)nc8=O)C7(F)F)OC(n7ccc(N)nc7=O)C6(F)F)OC(n6ccc(N)nc6=O)C5(F)F)OC(n5ccc(N)nc5=O)C4(F)F)OC(n4ccc(N)nc4=O)C3(F)F)C(O)C2(F)F)c(=O)n1` (stereo not given), for which the GI50 in the experiment with COLO 205 colon was 0.369 µM; in the experiment with HCT-15 colon it was 0.704 µM; in the experiment with HS 578T breast, above 100 µM; with HT29 colon it was 1.32 µM; in the experiment with IGROV1 ovarian it was above 100 µM; in the experiment with OVCAR-4 ovarian it was above 100 µM. The concentration for 50% growth inhibition (GI50) in the experiment with SW-620 colon is 0.168 µM. Moreover, the TGI in the experiment with COLO 205 colon, in the experiment on HT29 colon, in the experiment on IGROV1 ovarian, with MDA-MB-435, in the experiment with OVCAR-4 ovarian and with SK-MEL-5 melanoma was above 100 µM throughout. Also, in the experiment on SW-620 colon, the TGI is above 100 µM.
In the case of `COc1cc(-c2nn(C)nc2-c2cc3ccccc3s2)cc(OC)c1OC`, the GI50 with CAKI-1 renal is 3.77 µM; in the experiment with COLO 205 colon it was 0.082 µM; with HCT-15 colon, 0.0587 µM; in the experiment with HS 578T breast, 0.27 µM; with HT29 colon, 0.0558 µM; in the experiment with IGROV1 ovarian, 0.707 µM. The GI50 in the experiment on MDA-MB-435 is 0.0257 µM; in the experiment on SK-MEL-5 melanoma it was 0.225 µM; in the experiment on SW-620 colon it was 0.0633 µM. Moreover, the TGI with CAKI-1 renal was above 100 µM; with COLO 205 colon, 0.515 µM; with HCT-15 colon, above 100 µM; in the experiment on HS 578T breast it was above 100 µM; in the experiment with HT29 colon, 0.393 µM; in the experiment with IGROV1 ovarian, above 100 µM. Further, the TGI is 0.0995 µM in the experiment with MDA-MB-435, above 100 µM in the experiment on SK-MEL-5 melanoma and above 100 µM with SW-620 colon.
